According to patent US12398104B2, “Odorless thiols for permanent waving, straightening and depilatory applications” (The Procter & Gamble Company, priority 2017, dated 2025):

Assay: Mannequin head curl retention expert evaluation (air dried hair)
Details: through 20 washes
Source text: Mannequin Head Odor and Curl Expert Evaluation
Control perm: Omniperm™ with ammonium thioglycolate, available from Zotos Professional®, including both the reducing and oxidizing steps.
Curl Retention Assessments:
Treatment and expert sensory performed by licensed cosmetologist with 20+ years expertise in perms. All evaluations shown in graphs were done with hair in dry state, after air drying. Photos are available for most time points as well.

C[n+]1cccc(NCCS)c1.[I-] [3-((2-mercaptoethyl)amino)-1-methylpyridin-1-ium iodide]
Curl retention compared with benchmark control perm: equal curl retention
